In patent US11472811B2, “Pyrazolotriazolopyrimidine derivatives as A2A receptor antagonist” (BEIGENE, LTD., priority 2018, dated 2022):
Like-named read-outs stand apart in the source and are kept apart here.

Key:
[1] = biological target: human adenosine A1 receptor (A1R) (Homo sapiens (Human), UniProt P30542); experiment: Adenosine receptor binding assay, A1 (radioligand competitive binding); details: membrane homogenates from CHO cells transfected with A1R, 1 nM [3H]DPCPX
Experimental: (§1) Binding affinity of test compounds to four human adenosine receptors, A1, A2A, A2B and A3 was determined in radioligand competitive binding assay (conducted by Cerep, France) using following protocols. For A1 receptor (A1R), membrane homogenates from CHO cells transfected with A1R were incubated for 60 min at 22° C. with 1 nM [3H]DPCPX in the absence or presence of the test compound in a buffer containing 50 mM Tris-HCl (pH 7.4), 5 mM MgCl2, 1 mM EDTA/Tris and 2 UI/mL ADA. For A2AR, membrane homogenates from HEK293 cells transfected with A2AR were incubated for 120 min at 22° C. with 6 nM [3H]CGS21680 in the absence or presence of the test compound in a buffer containing 50 mM Tris-HCl (pH 7.4), 10 mM MgCl2, and 2 UI/mL ADA. For A2B receptor (A2BR), membrane homogenates from HEK293 cells transfected with A2BR were incubated for 60 min at 22° C. with 5 nM [3H]CPX in the absence or presence of the test compound in a buffer containing 10 mM Hepes/Tris (pH 7), 1 mM MgCl2, and 1 mM EDTA. For A3 receptor (A3R), membrane homogenates from HEK293 cells transfected with A3R were incubated for 120 min at 22° C. with 0.15 nM [125I] AB-MECA in the absence or presence of the test compound in a buffer containing 50 mM Tris-HCl (pH 7.4), 5 mM MgCl2, 1 mM EDTA and 2 UI/mL ADA. Nonspecific binding was determined in the presence of unlabeled 1 μM DPCPX, 10 μM NECA, 100 μM NECA, and 1 μM IB-MECA in A1R, A2AR, A2BR, A3R binding assays, respectively. Following incubation, the samples are rapidly filtered and washed with ice-cold 50 mM Tris-HCl. Then filters are dried and counted for radioactivity in a scintillation counter (Topcount, Packard) using a scintillation cocktail (Microscint 0, Packard). Duplicate experiments were performed for each assay. The results are expressed as a percent inhibition of control radioligand specific binding.

[2] = biological target: human A2A receptor (A2AR) (Homo sapiens (Human), UniProt P29274); experiment: Luciferase reporter assay (HEK293-A2AR-luc2p/CRE/Hygro cells); format: cell-based; details: 3 nM CGS21680, 5 h incubation
Summary of the method: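 HEK293 cells stably expressing human A2AR and a CRE-luc2P reporter were seeded in 1% FBS with 1 U/mL adenosine deaminase. After 18 h they were stimulated 5 h with 3 nM CGS21680 plus compound (0.1–10000 nM), then luciferase luminescence was read. IC50 was taken from inhibition curves, with CGS21680 alone set as 100%.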

Mouse BBB assay = format: in vivo; details: oral 10 mg/kg; for Brain (ng · g^−1): at 1 h
Experimental: Mice were acclimated for 1 week prior to use at 18-30 g body weight. Fasted mice were dosed orally at 10 mg/kg dose. At 1, 2 and 4 hours postdose, plasma samples from cardiac blood collected in tubes containing K2EDTA as the anticoagulant, and excised cerebral hemispheres were immediately frozen and stored at −80° C. until bioanalysis. Total concentrations of the compound were determined by LC-MS/MS. Brain homogenate concentrations were converted to brain concentrations for the calculations of brain-to-plasma ratios.

[3] = biological target: human adenosine A2A receptor (A2AR) (Homo sapiens (Human), UniProt P29274); experiment: Adenosine receptor binding assay, A2A (radioligand competitive binding); details: membrane homogenates from HEK293 cells transfected with A2AR, 6 nM [3H]CGS21680
Experimental: as §1

[4] = BLOQ: below limit of quantitation, Brain is 5 ng/g
[5] = limit of quantitation plasma 1 ng/ml, read-out: Plasma

human adenosine A1 receptor (A1R), sequence (P30542 whole entry): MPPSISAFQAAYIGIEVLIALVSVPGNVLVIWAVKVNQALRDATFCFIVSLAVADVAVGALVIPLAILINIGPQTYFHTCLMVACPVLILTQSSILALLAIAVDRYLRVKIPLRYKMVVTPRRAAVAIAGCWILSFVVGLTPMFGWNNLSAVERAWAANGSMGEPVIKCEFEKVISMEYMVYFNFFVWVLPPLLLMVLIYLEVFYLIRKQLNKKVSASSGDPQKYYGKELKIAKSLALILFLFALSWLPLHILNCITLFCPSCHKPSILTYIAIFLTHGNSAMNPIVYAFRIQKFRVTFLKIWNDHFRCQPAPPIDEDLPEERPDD
human adenosine A2A receptor (A2AR), sequence (P29274 whole entry): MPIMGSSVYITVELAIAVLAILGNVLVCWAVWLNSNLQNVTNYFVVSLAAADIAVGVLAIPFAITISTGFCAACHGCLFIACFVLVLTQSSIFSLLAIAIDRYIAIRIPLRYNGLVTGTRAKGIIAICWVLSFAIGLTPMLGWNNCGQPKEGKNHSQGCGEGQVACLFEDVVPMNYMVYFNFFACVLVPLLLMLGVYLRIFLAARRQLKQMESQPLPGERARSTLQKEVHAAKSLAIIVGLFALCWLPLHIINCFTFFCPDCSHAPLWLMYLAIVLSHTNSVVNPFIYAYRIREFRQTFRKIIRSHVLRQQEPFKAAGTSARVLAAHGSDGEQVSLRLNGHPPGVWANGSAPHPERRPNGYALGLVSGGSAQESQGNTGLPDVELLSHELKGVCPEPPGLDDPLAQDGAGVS
human A2A receptor (A2AR), sequence (P29274 whole entry): as above

Compound | Ki [1] [nM] | IC50 [2] [nM] | Brain (ng · g^−1) (Mouse BBB assay; [4]) | concentration at 1 h (Mouse BBB assay; [5]) [ng/mL] | Ki [3] [nM] | concentration at 1 h (Mouse BBB assay; BLOQ: below limit of quantitation, Brain is 5 ng/g, read-out: Brain) [ng/g]
C[C@](C(=O)NCC1(O)COC1)(c1ccccc1)n1ncc2c1nc(N)n1nc(-c3ccco3)nc21 [Example 31B, (R)-2-(5-amino-2-(furan-2-yl)-7H-pyrazolo[4,3-e][1,2,4]triazolo[1,5-c]pyrimidin-7-yl)-N-((3-hydroxyoxetan-3-yl)methyl)-2-phenylpropanamide] | 180 | 2.3 | BLOQ | 177 | 1.2 | –
CC1(O)CCC(NC(=O)[C@@](C)(c2ccccc2)n2ncc3c2nc(N)n2nc(-c4ccco4)nc32)CC1 (stereo partly drawn) [Example 69B, (R)-2-(5-amino-2-(furan-2-yl)-7H-pyrazolo[4,3-e][1,2,4]triazolo[1,5-c]pyrimidin-7-yl)-(cis)-N-(4-hydroxy-4-methylcyclohexyl)-2-phenylpropanamide] | 540 | 3.9 | BLOQ | 29.4 | 1.6 | –
C[C@](C(=O)N[C@H]1CC[C@@H](O)CC1)(c1ccccc1)n1ncc2c1nc(N)n1nc(-c3ccco3)nc21 [Example 76B, (R)-2-(5-amino-2-(furan-2-yl)-7H-pyrazolo[4,3-e][1,2,4]triazolo[1,5-c]pyrimidin-7-yl)-(cis)-N-(4-hydroxycyclohexyl)-2-phenylpropanamide] | 150 | 2.2 | BLOQ | 39.1 | 1.6 | –
C[C@](C(=O)N[C@@H]1CCC[C@@H]1O)(c1ccccc1)n1ncc2c1nc(N)n1nc(-c3ccco3)nc21 [Example 48B, (R)-2-(5-amino-2-(furan-2-yl)-7H-pyrazolo[4,3-e][1,2,4]triazolo[1,5-c]pyrimidin-7-yl)-N-((1R,2S)-2-hydroxycyclopentyl)-2-phenylpropanamide] | 12 | 1.6 | – | 56.3 | 2.2 | 8.69
